Experimental findings from US20260070899A1, “N-(2-(4-CYANOTHIAZOLIDIN-3-YL)-2-OXOETHYL)-QUINOLINE-4-CARBOXAMIDES” (AstraZeneca AB, priority 2022, published 2026) are described below.

For one data set, the system named is Rat Hepatocytes (rHep). As to the kind of experiment: Metabolic stability in rat hepatocytes (rHep). In kind it is in vitro ADME. The note with it: n = 1 or geometric mean (n = 2-3). On the procedure:
Metabolic stability in rat hepatocytes was measured as described in J Comput Aided Mol Des 2015, 29, 795.

Data set [1] in a line: Metabolic stability in human liver microsomes (HLM). In kind it is in vitro ADME. The note with it: n = 1 or average (n = 2-3). On the procedure: Metabolic stability in HLM was measured as described in J Comput Aided Mol Des 2015, 29, 795.
A short description of another data set: Kinetic solubility. It is filed as physicochemical. The note with it: kinetic from dmso stock, n = 1 or average (n = 2-4). On the procedure: Kinetic solubility was measured as described in Comput Aided Mol Des 2015, 29, 795.
In data set [2] the target is T1, human dipeptidylpeptidase 8 (hDPP8) (Homo sapiens, UniProt Q6V1X1).
T1 construct: purchased BPS Bioscience 80080
Nature of the data set: hDPP8 inhibition assay. It is filed as biochemical. The note with it: hDPP8 1.5 nM, Ala-Pro-amino-methylcoumarin 5 μM; n = 1. On the procedure:
(§1) Compounds were tested in a biochemical inhibition assay using human dipeptidylpeptidase 8 (hDPP8) enzyme at 1.5 nM FAC (BPS Bioscience, #80080) and the substrate Ala-Pro-amino-methylcoumarin (BPS Bioscience #80305) at 5 μM FAC. The enzymatic reactions were conducted in duplicate at rt for 30 min in 50 μL DPP assay buffer (BPS Bioscience, #80300). Compound solutions (in DMSO) at 10 CR, 3 fold dilution series were prepared in assay buffer ten-fold higher than the final concentration, and 5 μL of the dilution was added to a 50 μL reaction so that the highest compound concentration was 100 μM FAC and the concentration of DMSO was 1% in all wells. The plates were read on a Tecan Infinite M1000 microplate reader with excitation 340 nm and emission 460 nm. Data were analyzed in Graph Pad Prism. […] Raw data signals were normalized using 1% DMSO as 0% control and no enzyme as 100% inhibitor control.

Data set [3] addresses T2, human dipeptidylpeptidase 9 (hDPP9) (Homo sapiens, UniProt Q86TI2).
T2 construct: purchased BPS Bioscience 80090
As to the kind of experiment: hDPP9 inhibition assay. The note with it: hDPP9 0.4 nM, Ala-Pro-amino-methylcoumarin 5 μM; n = 1. In kind it is biochemical. As to the method: as §1, with “9 (hDPP9)” for “8 (hDPP8)”, “0.4” for “1.5”, “#80090)” for “#80080)”

Molecules are shown by their SMILES.

T1 sequence (Q6V1X1 whole entry): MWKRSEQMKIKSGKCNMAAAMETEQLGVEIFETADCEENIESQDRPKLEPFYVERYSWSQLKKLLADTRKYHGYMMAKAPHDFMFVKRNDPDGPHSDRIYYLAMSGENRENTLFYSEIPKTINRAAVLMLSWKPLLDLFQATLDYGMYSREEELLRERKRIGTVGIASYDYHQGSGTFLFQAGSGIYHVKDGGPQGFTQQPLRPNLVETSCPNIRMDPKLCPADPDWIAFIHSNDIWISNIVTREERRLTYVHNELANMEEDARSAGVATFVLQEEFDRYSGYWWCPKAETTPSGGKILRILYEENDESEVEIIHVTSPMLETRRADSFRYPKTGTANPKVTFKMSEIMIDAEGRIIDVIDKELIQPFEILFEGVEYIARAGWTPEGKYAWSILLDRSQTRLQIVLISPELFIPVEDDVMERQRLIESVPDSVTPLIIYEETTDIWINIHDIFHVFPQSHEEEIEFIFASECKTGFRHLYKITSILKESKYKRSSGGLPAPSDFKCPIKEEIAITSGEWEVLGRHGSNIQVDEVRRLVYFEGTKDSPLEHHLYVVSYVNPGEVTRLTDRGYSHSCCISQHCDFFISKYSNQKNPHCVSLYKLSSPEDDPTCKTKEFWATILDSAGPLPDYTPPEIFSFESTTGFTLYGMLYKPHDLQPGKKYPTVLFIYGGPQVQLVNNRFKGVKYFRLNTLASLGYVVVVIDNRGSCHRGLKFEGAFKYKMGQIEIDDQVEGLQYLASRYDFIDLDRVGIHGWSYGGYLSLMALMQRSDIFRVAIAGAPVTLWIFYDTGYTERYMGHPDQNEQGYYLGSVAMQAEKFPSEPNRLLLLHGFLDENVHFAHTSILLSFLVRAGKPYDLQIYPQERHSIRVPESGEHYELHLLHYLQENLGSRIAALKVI
T2 sequence (Q86TI2 whole entry): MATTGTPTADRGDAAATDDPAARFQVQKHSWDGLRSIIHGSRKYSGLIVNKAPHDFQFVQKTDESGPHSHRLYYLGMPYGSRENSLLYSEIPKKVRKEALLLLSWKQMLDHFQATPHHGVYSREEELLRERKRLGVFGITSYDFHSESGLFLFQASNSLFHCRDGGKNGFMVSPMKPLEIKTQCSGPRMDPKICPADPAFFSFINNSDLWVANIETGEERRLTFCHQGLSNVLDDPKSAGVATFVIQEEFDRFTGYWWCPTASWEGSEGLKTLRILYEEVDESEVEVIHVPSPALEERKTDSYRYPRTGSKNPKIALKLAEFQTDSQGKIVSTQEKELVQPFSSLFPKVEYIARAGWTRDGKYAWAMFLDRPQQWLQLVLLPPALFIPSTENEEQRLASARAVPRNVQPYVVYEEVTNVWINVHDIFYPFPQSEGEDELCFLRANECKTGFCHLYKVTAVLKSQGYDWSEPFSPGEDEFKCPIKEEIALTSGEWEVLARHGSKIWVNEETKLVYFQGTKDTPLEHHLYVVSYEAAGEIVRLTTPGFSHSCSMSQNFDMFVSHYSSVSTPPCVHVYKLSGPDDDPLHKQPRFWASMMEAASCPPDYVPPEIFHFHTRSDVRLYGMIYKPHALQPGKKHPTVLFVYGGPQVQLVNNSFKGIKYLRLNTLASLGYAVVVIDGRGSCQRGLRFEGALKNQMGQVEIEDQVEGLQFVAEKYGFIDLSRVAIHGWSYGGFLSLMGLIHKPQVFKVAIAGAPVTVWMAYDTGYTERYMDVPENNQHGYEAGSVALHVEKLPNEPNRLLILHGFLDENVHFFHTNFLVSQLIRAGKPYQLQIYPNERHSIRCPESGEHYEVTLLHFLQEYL

Consider `COC(C)(C)c1ccc2nccc(C(=O)NCC(=O)N3CSC[C@H]3C#N)c2c1` [Example 18, (R)—N-(2-(4-Cyanothiazolidin-3-yl)-2-oxoethyl)-6-(2-methoxypropan-2-yl)quinoline-4-carboxamide], for which the “rHeps CLint” value in the data set on Rat Hepatocytes (rHep) stood at 26 μL/min/1E6. In data set [1], the microsomal CLint is 69 µL/min/mg. In addition, the solubility in the data set “Kinetic solubility” was over 1000 µM.
For the molecule `CC(C)(F)COc1ccc2nccc(C(=O)NCC(=O)N3CSC[C@H]3C#N)c2c1` [Example 3, (R)—N-(2-(4-Cyanothiazolidin-3-yl)-2-oxoethyl)-6-(2-fluoro-2-methylpropoxy)quinoline-4-carboxamide], the IC50 stood at 6.4 µM in data set [2] and 1.9 µM in data set [3].
